Assays:
[1] = system: ITGA5; assay: RT-qPCR expression of aging-related gene ITGA5 in HDFa; format: cell-based, human; conditions: 0.05 mg/mL, 6 h
Procedure: (§1) Then, cells were lysed, and RNA was extracted (RNeasy mini kit, Qiagen). Purified RNAs were retro-transcribed (High-capacity cDNA reverse transcription kit, Applied Biosystems). RT-qPCR was performed with the panel of TaqMan assay probes (Thermo Fisher Scientific) using StepOne plus Real time PCR instrument. […] The obtained data were analyzed using the ΔΔCt method, which provides the target gene expression values as fold changes in the treated sample compared with an untreated basal sample. Both samples were normalized with the relative expression of the housekeeping gene GAPDH.

[2] = system: ITGB1; assay: RT-qPCR expression of aging-related gene ITGB1 in HDFa; format: cell-based, human; conditions: 0.05 mg/mL, 6 h
Procedure: as §1

[3] = system: human immunoglobulin binding protein (BiP); assay: BiP ELISA in HEKa cell lysates; format: cell-based; conditions: 24 hours
Procedure: The effect of cycled peptides was determined on the production of human immunoglobulin binding protein (BiP) in human epidermal keratinocytes from adult (HEKa), through quantification of this protein in vitro in cell culture lysates by enzyme linked immunosorbent assay (ELISA).
In this study the BiP levels in human epidermal keratinocytes treated with cycled peptide B was evaluated, through quantification of this protein in vitro in cell culture lysates by enzyme linked immunosorbent assay (ELISA).
HEKa cells were seeded in a 24-well plate at a density of 50.000 cells/well and maintained at standard culture conditions (Supplemented Dermal Cell Basal Medium, DCBM; 37°C, 95% RH, 5% CO2) for 24 hours. Then, keratinocytes were treated for 24 hours with or without the presence of 0.01 or 0.05 mg/mL of cycled peptide A or peptide B. After treatment, cells were lysed with RIPA buffer and lysates were collected and centrifuged in order to eliminate cell debris and were kept at -80°C until they were used for BiP quantification with BiP ELISA Kit according to manufacturer instructions. In order to normalize data, total protein content of each sample was quantified through Micro BCA Protein Assay kit according to manufacturer instructions.
Each condition was performed at least in triplicate (n=3) in three independent experiments (N=3). For all data, mean values of the different experiments and SEM values are shown. All data was first normalized as follows: BiP levels/cell = (BiP levels per well)/(Total protein (BCA) per well) [formula] % vs Basal = (BiP per cell in treated samples)/(Bip per cell in untreated samples) × 100 [formula]
Statistical data analysis was performed using Student t-test by comparison of % BiP expression from cells untreated (Basal) vs. treated with cycled peptide samples, *p<0.05, **p<0.01, ***p<0.001.

[4] = system: FN; assay: RT-qPCR expression of aging-related gene FN in HEKa; format: cell-based, human; conditions: 0.01 mg/mL, 24 h
Procedure: as §1

[5] = system: TGFBR3; assay: RT-qPCR expression of aging-related gene TGFBR3 in HDFa; format: cell-based, human; conditions: 0.05 mg/mL, 6 h
Procedure: as §1

[6] = system: TGFBR3; assay: RT-qPCR expression of aging-related gene TGFBR3 in HEKa; format: cell-based, human; conditions: 0.01 mg/mL, 24 h
Procedure: as §1

[7] = system: TGFβ3; assay: qPCR TGFβ3 expression in HDF treated with conditioned media from peptide-treated keratinocytes; format: cell-based, human
Procedure: For TGFβ3 gene expression assessment, HEKa cells were seeded in 24-well plate at a density of […] and incubated at 37 °C in a humidified atmosphere with 5% CO2. Next day, cell culture media was replaced by fresh media containing 0.0025 or 0.01 mg/mL of cycled peptide B. In parallel, HDF cells were seeded on culture plates with or without coverslips (for immunofluorescence or qPCR, respectively) and incubated for 24 h.
Conditioned media from HEKa cells after 48 hours of treatment was then transferred to HDF culture plates. Cells were maintained in culture for additional 24h (for qPCR) or for 4 days (for collagen I immunostaining).
For qPCR, cells were lysed, RNA extracted, and gene expression for TGFβ3 target was obtained as indicated in the previous examples.

Fold change vs. Basal [1]: 1.31
Fold change vs. Basal [2]: 1.66
Fold change vs. Basal [4]: 1.58
Fold change vs. Basal [5]: 1.74
Fold change vs. Basal [6]: 1.23
expression of TGFβ3 over the basal expression in keratinocyte conditioned media (KCM) ([7]; 24 h with conditioned media from HEKa treated 48 hours with 0.0025 mg/mL): 1.35 fold
expression of TGFβ3 over the basal expression in keratinocyte conditioned media (KCM) ([7]; 24 h with conditioned media from HEKa treated 48 hours with 0.01 mg/mL): 1.60 fold
Compound: CC(C)C[C@@H]1NC(=O)[C@H](C)NC(=O)[C@H](Cc2c[nH]cn2)NC(=O)[C@H](Cc2c[nH]c3ccccc23)NC(=O)[C@H](Cc2ccccc2)NC(=O)[C@H](CCCNC(=N)N)NC1=O [Peptide B, cyclo-Phe-Trp- His- Ala-Leu-Arg]
Mean normalized expression ([1]; normalized to GAPDH): 2.57E-01
Mean normalized expression ([2]; normalized to GAPDH): 1.02E+00
% Mean (BiP per cell, % vs Basal) ([3]; 0.01 mg/mL): 110.18%
% Mean (BiP per cell, % vs Basal) ([3]; 0.05 mg/mL): 123.74%
increase of BiP levels, increment when compared with untreated cells (Basal) ([3]; concentration dependent): up to 24%
Mean normalized expression ([4]; normalized to GAPDH): 3.28E-01
Mean normalized expression ([5]; normalized to GAPDH): 8.00E-03
Mean normalized expression ([6]; normalized to GAPDH): 2.54E-02

Source: patent EP4417190A1, “CYCLIC PEPTIDES WITH ANTI-AGING EFFICACY” (Lipotrue, S.L., priority 2023, dated 2024)
